Assay results from ChEMBL document CHEMBL1201862, “PubChem BioAssay data set” (2004).
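Cultured in 96-well plates, cells were exposed to test compound for 48 hours across five concentrations. At the GI50, growth is halved.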 Activity calls are given as the source filed them. Rule as the data show it: active = GI50 up to about 1.1 µM and inactive = higher.

Legend:
Assay in all cases: NCI anticancer screen, dose series, 48 h
NCI-H226 = tested on: NCI-H226
CAKI-1 = tested on: CAKI-1
OVCAR-8 = tested on: OVCAR-8
NCI-H23 = tested on: NCI-H23
K562 = tested on: K562
SK-MEL-2 = tested on: SK-MEL-2
A549 = tested on: A549
SNB-75 = tested on: SNB-75
MOLT-4 = tested on: MOLT-4
MCF7 = tested on: MCF7
HCC 2998 = tested on: HCC 2998
HCT-116 = tested on: HCT-116
EKVX = tested on: EKVX
RPMI-8226 = tested on: RPMI-8226
NCI-H522 = tested on: NCI-H522
SK-MEL-28 = tested on: SK-MEL-28
A498 = tested on: A498
OVCAR-4 = tested on: OVCAR-4
UO-31 = tested on: UO-31
KM12 = tested on: KM12

Compound	GI50 (NCI-H226)	GI50 (CAKI-1)	GI50 (OVCAR-8)	GI50 (NCI-H23)	GI50 (K562)	GI50 (SK-MEL-2)	GI50 (A549)	GI50 (SNB-75)	GI50 (MOLT-4)	GI50 (MCF7)	GI50 (HCC 2998)	GI50 (HCT-116)	GI50 (EKVX)	GI50 (RPMI-8226)	GI50 (NCI-H522)	GI50 (SK-MEL-28)	GI50 (A498)	GI50 (OVCAR-4)	GI50 (UO-31)	GI50 (KM12)
O=c1ccc2ccc(CBr)cc2o1	10.7 µM (inactive)	1.55 µM (inactive)	2.05 µM (inactive)	2.92 µM (inactive)	2.18 µM (inactive)	11.4 µM (inactive)	15.5 µM (inactive)	> 100 µM (inactive)	2.29 µM (inactive)	1.9 µM (inactive)	3.34 µM (inactive)	1.88 µM (inactive)	2.49 µM (inactive)	1.61 µM (inactive)	1.26 µM (inactive)	13.6 µM (inactive)	16 µM (inactive)			
COc1cc(C2S/C(=C/c3ccccc3)C(=O)N2c2ccccc2Cl)cc(OC)c1OC (stereo not drawn)	> 100 µM (inactive)	32.6 µM (inactive)	19.3 µM (inactive)	24.3 µM (inactive)		16 µM (inactive)	37.1 µM (inactive)	6.21 µM (inactive)	41.8 µM (inactive)	18.6 µM (inactive)	33 µM (inactive)	19 µM (inactive)	13.6 µM (inactive)		12.4 µM (inactive)	42.2 µM (inactive)	43.4 µM (inactive)	28.2 µM (inactive)	28.5 µM (inactive)	22 µM (inactive)
COc1ccc2nc(-n3c(/C=C/c4ccccc4O)nc4ccccc4c3=O)sc2c1	36 µM (inactive)	46 µM (inactive)	> 100 µM (inactive)	47.6 µM (inactive)	20.4 µM (inactive)	88.3 µM (inactive)	39.4 µM (inactive)	72.1 µM (inactive)	32.9 µM (inactive)	47.5 µM (inactive)	> 100 µM (inactive)	25.5 µM (inactive)	8.51 µM (inactive)	24.9 µM (inactive)	58.1 µM (inactive)	31.4 µM (inactive)	29.9 µM (inactive)	> 100 µM (inactive)	64.6 µM (inactive)	64.4 µM (inactive)
C[C@H](N[C@H]1CCC[C@]1(O)C#Cc1ccc2c(c1)OCO2)c1ccccc1	> 25 µM (inactive)	> 25 µM (inactive)	> 25 µM (inactive)	> 25 µM (inactive)	11.7 µM (inactive)	8.61 µM (inactive)	> 25 µM (inactive)	15.4 µM (inactive)	10.9 µM (inactive)	> 25 µM (inactive)	10.7 µM (inactive)		> 25 µM (inactive)	8.89 µM (inactive)		15.5 µM (inactive)	> 25 µM (inactive)	14 µM (inactive)	> 25 µM (inactive)	> 25 µM (inactive)
Cc1ccc(S(=O)(=O)NNC(=O)Nc2ccc(Cl)cc2)cc1	> 100 µM (inactive)	> 100 µM (inactive)	> 100 µM (inactive)	> 100 µM (inactive)	4.26 µM (inactive)	> 100 µM (inactive)	> 100 µM (inactive)	25.5 µM (inactive)	> 100 µM (inactive)	> 100 µM (inactive)	> 100 µM (inactive)	> 100 µM (inactive)	> 100 µM (inactive)	> 100 µM (inactive)	> 100 µM (inactive)	> 100 µM (inactive)	> 100 µM (inactive)	51.5 µM (inactive)	> 100 µM (inactive)	> 100 µM (inactive)
CC(=O)C(CN1CCCCC1)C(c1ccccc1)c1c(O)c2ccccc2oc1=O (stereo not drawn)	> 100 µM (inactive)	> 100 µM (inactive)	> 100 µM (inactive)	> 100 µM (inactive)	> 100 µM (inactive)	> 100 µM (inactive)	> 100 µM (inactive)	> 100 µM (inactive)	> 100 µM (inactive)	> 100 µM (inactive)	> 100 µM (inactive)	> 100 µM (inactive)	> 100 µM (inactive)	> 100 µM (inactive)	> 100 µM (inactive)	> 100 µM (inactive)	> 100 µM (inactive)	> 100 µM (inactive)	> 100 µM (inactive)	> 100 µM (inactive)
Cc1ccc(S(=O)(=O)OCCN(CCOS(=O)(=O)c2ccc(C)cc2)c2ccc(C=O)cc2)cc1		21.1 µM (inactive)	41.8 µM (inactive)	36.2 µM (inactive)	38.4 µM (inactive)	16.5 µM (inactive)	32.5 µM (inactive)		32.4 µM (inactive)	30.7 µM (inactive)	28.7 µM (inactive)	30.1 µM (inactive)	30.8 µM (inactive)	38.4 µM (inactive)	10.8 µM (inactive)	31.4 µM (inactive)	24.9 µM (inactive)	21.2 µM (inactive)	19.5 µM (inactive)	22.8 µM (inactive)
Clc1nc(-[n+]2ccc(-c3ccncc3)cc2)nc(Nc2ccccc2)c1Cl	> 100 µM (inactive)			> 100 µM (inactive)	52.1 µM (inactive)	> 100 µM (inactive)	> 100 µM (inactive)		49.1 µM (inactive)	33.1 µM (inactive)	> 100 µM (inactive)	> 100 µM (inactive)	83.8 µM (inactive)	57.9 µM (inactive)		> 100 µM (inactive)	> 100 µM (inactive)	> 100 µM (inactive)	> 100 µM (inactive)	> 100 µM (inactive)
CCCCCCCCCCCCSC(=S)c1c(C)[nH]n(CCCCCCCCCCCC)c1=O	> 100 µM (inactive)	> 100 µM (inactive)	91.2 µM (inactive)	> 100 µM (inactive)	> 100 µM (inactive)	78.2 µM (inactive)	40.5 µM (inactive)	> 100 µM (inactive)	> 100 µM (inactive)		> 100 µM (inactive)	43.6 µM (inactive)	27.5 µM (inactive)	94.8 µM (inactive)	99.5 µM (inactive)	> 100 µM (inactive)	> 100 µM (inactive)	> 100 µM (inactive)	88.1 µM (inactive)	> 100 µM (inactive)
CCOC(=O)/C(Cl)=C(\C)Nc1nc2c(ccc3ccccc32)s1	24.5 µM (inactive)	87.9 µM (inactive)	60.3 µM (inactive)	31.3 µM (inactive)	17.5 µM (inactive)	26.6 µM (inactive)		14.6 µM (inactive)	7.28 µM (inactive)	24.5 µM (inactive)	16.4 µM (inactive)	25.5 µM (inactive)	32.6 µM (inactive)		9.35 µM (inactive)	> 100 µM (inactive)	> 100 µM (inactive)	87.7 µM (inactive)	> 100 µM (inactive)	30.6 µM (inactive)
COC(=O)C(Cc1ccc2c(c1)OCO2)(NC(=O)c1ccccc1)P(=O)(OC)OC (stereo not drawn)	> 100 µM (inactive)	> 100 µM (inactive)	> 100 µM (inactive)	> 100 µM (inactive)	> 100 µM (inactive)	63.5 µM (inactive)	> 100 µM (inactive)	> 100 µM (inactive)	> 100 µM (inactive)		> 100 µM (inactive)	> 100 µM (inactive)	> 100 µM (inactive)	> 100 µM (inactive)	> 100 µM (inactive)	> 100 µM (inactive)	> 100 µM (inactive)	> 100 µM (inactive)	> 100 µM (inactive)	> 100 µM (inactive)
Nc1nc(Cl)nc2c1ncn2C1CC(O)C(CO)O1 (stereo not drawn)	16.7 µM (inactive)	0.665 µM (active)	0.097 µM (active)	0.592 µM (active)	13.4 µM (inactive)	> 100 µM (inactive)	4.26 µM (inactive)	36.6 µM (inactive)	0.15 µM (active)	9.75 µM (inactive)	19.3 µM (inactive)	4.04 µM (inactive)	1.21 µM (inactive)	54.2 µM (inactive)	25.5 µM (inactive)	43.3 µM (inactive)	2.95 µM (inactive)	> 100 µM (inactive)	0.701 µM (active)	> 100 µM (inactive)
C=C1CC(Cn2cc(Br)c(=O)[nH]c2=O)(c2ccc(Br)cc2)OC1=O (stereo not drawn)	13.4 µM (inactive)	2.38 µM (inactive)	15.3 µM (inactive)	3.81 µM (inactive)	0.644 µM (active)	1.72 µM (inactive)	14.8 µM (inactive)	13.2 µM (inactive)	1.79 µM (inactive)	2.61 µM (inactive)	3.48 µM (inactive)	1.36 µM (inactive)	17.9 µM (inactive)	0.331 µM (active)	1.6 µM (inactive)	7.19 µM (inactive)	1.22 µM (inactive)	1.85 µM (inactive)	14.1 µM (inactive)	4.02 µM (inactive)
C=C1C(=O)O[C@@H]2[C@H](O)[C@@H](C)[C@@H]3C=CC(=O)[C@@]3(C)[C@@H](OC(=O)/C(C)=C/C)[C@H]12	1.12 µM (inactive)	0.782 µM (active)	0.723 µM (active)	0.845 µM (active)	0.483 µM (active)	0.557 µM (active)	1.98 µM (inactive)	2.03 µM (inactive)	0.344 µM (active)	0.518 µM (active)	0.656 µM (active)	0.3 µM (active)	0.774 µM (active)	0.344 µM (active)	0.0889 µM (active)	0.344 µM (active)	1.32 µM (inactive)	1.35 µM (inactive)	5.31 µM (inactive)	1.01 µM (active)
